{"source": "patent US11591569B2", "about": "“Methods for epicardial differentiation of human pluripotent stem cells” (Wisconsin Alumni Research Foundation, priority 2015, dated 2023)", "molecules": {"B1": {"name": "Bone Morphogenetic Protein 4 (protein, UniProt P12644 293-408, looked up)", "Bone morphogenetic protein 4": "SPKHHSQRARKKNKNCRRHSLYVDFSDVGWNDWIVAPPGYQAFYCHGDCPFPLADHLNSTNHAIVQTLVNSVNSSIPKACCVPTELSAISMLYLDEYDKVVLKNYQEMVVEGCGCR", "notes": "TGFβ superfamily growth factor"}}, "format_in_all_cases": "cell-based, human", "key": {"[1]": {"system": "hPSC-derived cardiac progenitors", "assay": "Epicardial (WT1+) differentiation of hPSC-derived cardiac progenitors, flow cytometry at day 12", "details": "for WT1+ cell differentiation compared with 3 μM CHIR99021: 0.3 μM, day 7 to day 9, GiWiGi protocol, flow cytometry at day 12; for cTnT+WT1+ cells: day 6 progenitors treated day 7 to day 9, day 12 flow cytometry", "experimental": "Epicardial Cell Generation Via Activation of Canonical Wnt Signaling: At day 6, cardiac progenitor cells were singularized with Accutase at 37° C. for 5 minutes and then seeded onto a gelatin-coated cell culture dish at 20,000-80,000 cells/cm^2 in LaSR basal medium (advanced DMEM/F12 with 100 μg/mL ascorbic acid) or RPMI/Vc/Ins medium (100 μg/mL ascorbic acid and 1 μg/mL human recombinant or bovine insulin (Sigma)) with 5 μM ROCK inhibitor Y-27632 for 24 hours. […] Data were collected on a FACSCaliber flow cytometer (Beckton Dickinson) and analyzed using FlowJo. FACS gating was based on the corresponding isotype antibody control. Pro-epicardium arises from ISL1+NKX2.5+ second heart field progenitors in vivo^1,41."}, "[2]": {"system": "hPSCs", "assay": "Cardiac progenitor induction from hPSCs, gene expression by quantitative RT-PCR", "details": "6 μM CHIR99021 at day 0 in RPMI medium, H13 hESCs", "experimental": "Cardiac Progenitor Induction Via Modulation of Canonical Wnt Signaling: When hPSCs maintained on a SyntheMax-coated surface achieved confluence, cells were singularized with Accutase (Innovative Cell Technologies) at 37° C. for 5 minutes and then seeded onto a SyntheMax-coated cell culture dish at 250,000 cells/cm^2 in mTeSR1 or E8 supplemented with 5 μM ROCK inhibitor Y-27632 (Selleckchem) (day −3) for 24 hours. Cells were then cultured in mTeSR1 or E8, changed daily. At day 0, cells were treated with 6 μM CHIR99021 (Selleckchem) for 24 hours in RPMI medium, followed by a change with RPMI medium at day 1. 2.5-5 μM IWP2 (Tocris) was added at day 3 and removed during the medium change at day 5.\n(§1) RT-PCR and Quantitative RT-PCR: Total RNA was prepared with the RNeasy mini kit (QIAGEN) and treated with DNase (QIAGEN). 1 μg RNA was reverse transcribed into cDNA via Oligo (dT) with Superscript III Reverse Transcriptase (Invitrogen). Real-time quantitative PCR was done in triplicate with iQSYBR Green SuperMix (Bio-Rad). GAPDH was used as an endogenous housekeeping control."}, "[3]": {"system": "hPSC-derived epicardial cells", "assay": "EMT induction of hPSC-derived epicardial cells", "details": "10 ng/mL bFGF, 5 ng/mL TGFβ1; for Cell morphology after treatment: H13 hESC-derived epicardial cells, day 18; for Expression of WT1 and ZO1: immunostaining; for EMT (CDH1 decreased, CDH2 and SNAIL2 increased versus untreated controls): qPCR and E-cadherin immunostaining", "experimental": "Single Cell Passage and EMT Induction: Confluent WT1+ cells were dissociated into single cells with Accutase at 37° C. for 5 minutes and then seeded onto a gelatin-coated cell culture dish at 10,000 cells/cm^2 in LaSR basal medium supplemented with 5 μM ROCK inhibitor Y-27632 for 24 hr. After 24 hours, medium was changed to LaSR basal medium and cells were treated with TGFβ1 or bFGF (R&D Systems) as indicated. Medium was changed every 3 days until analysis.\nImmunostaining Analysis: Cells were fixed with 4% paraformaldehyde for 15 minutes at room temperature and then stained with primary and secondary antibodies (Table 1) in PBS plus 0.4% Triton X-100 and 5% non-fat dry milk (Bio-Rad). Nuclei were stained with Gold Anti-fade Reagent with DAPI (Invitrogen). An epifluorescence microscope (Leica DM IRB) with a QImaging® Retiga 4000R camera was used for imaging analysis.\nas §1"}, "[4]": {"system": "hPSC-derived epicardial cells", "assay": "Long-term expansion of hPSC-derived epicardial cells", "experimental": "Long-Term Maintenance of hPSC-Derived Epicardial Cells: To expand the epicardial cells, confluent cells on day 3 or 4 of differentiation were split 1:3 at a density of 0.04 to 0.08 million cells/cm^2 using Versene (Life Technologies) or Accutase and routinely passaged onto gelatin-coated plates in LaSR basal medium or RPMI/Vc/Ins medium and 0.5 μM A83-01 (Stemgent) or 2 μM SB431542 (Stemgent) with medium changed daily until the cells reached confluence. Overnight treatment of 5 μM Y27632 and 1% human recombinant albumin (Sigma-Aldrich) on single cells during passage was used to improve cell attachment and survival, but they were not required once cells attached.\nFlow Cytometry Analysis: Cells were dissociated into single cells with Accutase for 10 minutes and then fixed with 1% paraformaldehyde for 20 minutes at room temperature and stained with primary and secondary antibodies (Table 1) in PBS plus 0.1% Triton X-100 and 0.5% BSA. Data were collected on a FACSCaliber flow cytometer (Beckton Dickinson) and analyzed using FlowJo. FACS gating was based on the corresponding isotype antibody control."}, "[5]": {"details": "day 6 ISL1+NKX2.5+ progenitors treated 48 hours (day 7 to day 9), H13 hESC-derived day 12 cultures, concentrations per Table 3"}}}
{"molecule": "Cc1c[nH]c(-c2cnc(NCCNc3ccc(C#N)cn3)nc2-c2ccc(Cl)cc2Cl)n1", "note": "[CHIR99021]", "values": [{"measurement": "WT1+ cells", "setting": "[1]; 3 μM CHIR, initial density 0.06 million cells per cm^2, LaSR basal medium, day 12", "value": "more than 95%"}, {"measurement": "WT1+ cells", "setting": "[1]; [5]", "value": "more than 85%"}, {"measurement": "Gene expression changes in the first 24 hr after addition", "setting": "[2]", "value": "down-regulation of the pluripotency markers OCT4 and NANOG, and induction of the primitive streak like gene T"}]}
{"molecule": "bFGF: FGF pathway protein modulator (R&D Systems)", "values": [{"measurement": "Cell morphology after treatment", "setting": "[3]", "value": "fibroid spindle"}, {"measurement": "Expression of WT1 and ZO1", "setting": "[3]", "value": "significantly decreased"}, {"measurement": "EMT (CDH1 decreased, CDH2 and SNAIL2 increased versus untreated controls)", "setting": "[3]", "value": "induced EMT"}]}
{"molecule": "BIO-acetoxime", "values": [{"measurement": "WT1+ cell differentiation compared with 3 μM CHIR99021", "setting": "[1]", "value": "induced WT1+ cell differentiation to a similar extent as 3 μM CHIR99021"}]}
{"molecule": "Cc1cccc(-c2nn(C(=S)Nc3ccccc3)cc2-c2ccnc3ccccc23)n1", "note": "[A83-01]", "values": [{"measurement": "Expandability of epicardial cells from additional hPSC lines", "setting": "[4]; 19-9-11 iPSC-derived epicardial cells, 0.5 μM A83-01", "value": "expandable"}, {"measurement": "Expansion with retention of epithelial morphology and WT1 expression", "setting": "[4]; H13 hESC-derived day 18 epicardial cells, treated 3 days, 0.5 μM", "value": "enabled expansion of hPSC-derived epicardial cells that retained polarized epithelial morphology and WT1 expression"}]}
{"molecule": "CHIR98014", "values": [{"measurement": "WT1+ cell differentiation compared with 3 μM CHIR99021", "setting": "[1]", "value": "induced WT1+ cell differentiation to a similar extent as 3 μM CHIR99021"}]}
{"molecule": "CC1=C(/C=C/C(C)=C/C=C/C(C)=C/C(=O)O)C(C)(C)CCC1", "note": "[retinoic acid]", "values": [{"measurement": "WT1+ cells", "setting": "[1]; [5]", "value": "about 10%"}, {"measurement": "cTnT+WT1+ cells", "setting": "[1]", "value": 2, "unit": "%"}]}
{"molecule": "TGFβ: TGFβ pathway protein modulator (R&D Systems)", "values": [{"measurement": "Cell morphology after treatment", "setting": "[3]", "value": "fusiform-shaped appearance"}, {"measurement": "Expression of WT1 and ZO1", "setting": "[3]", "value": "significantly decreased"}, {"measurement": "EMT (CDH1 decreased, CDH2 and SNAIL2 increased versus untreated controls)", "setting": "[3]", "value": "induced EMT"}]}
{"molecule": "c1cc(-c2cnn3cc(-c4ccc(OCCN5CCCCC5)cc4)cnc23)ccn1", "note": "[dorsomorphin]", "values": [{"measurement": "WT1+ cells", "setting": "[1]; [5]", "value": "about 10%"}, {"measurement": "cTnT+WT1+ cells", "setting": "[1]", "value": 2, "unit": "%"}]}
{"molecule": "B1", "values": [{"measurement": "Cell population obtained in the presence of CHIR", "setting": "[1]; co-treatment with CHIR (2 μM CHIR99021, FIG. 10), day 7 to day 9, day 12 flow cytometry of cTnT and WT1", "value": "yielded an unknown population at the expense of WT1+ cells"}, {"measurement": "WT1+ cells", "setting": "[1]; [5]", "value": "about 10%"}, {"measurement": "cTnT+WT1+ cells", "setting": "[1]", "value": 2, "unit": "%"}]}
